Consider 97 molecules from ChEMBL document CHEMBL3507680, “University of Dundee, Gates Library screen for HepG2 cell viability”.

The data set is described as follows: Human HepG2 cell viability assay in 384 well format. The following applies: HepG2 cells, read-out: Inhibition. The class given is toxicity, cell-based. On the set-up: dose 125 nL, time 70.5 hour; cytotoxicity at 70.5 h: concentration not given beside the values.

Take `CCOC(=O)C1(Cc2cccc(OC)c2)CCN(Cc2ccon2)CC1`: the cytotoxicity at 70.5 h was -11.6%.
In the case of `CCn1ccnc1CN1CCCC(CO)(Cc2cccc(OC)c2)C1` (configuration not stated) it was -14.1%.
In the case of `CCOCC1CN(C(=O)Cc2ccccn2)Cc2cnn(CC)c21` (configuration not stated) it was 10.8%; in that of `Cc1n[nH]c(C)c1CCC(=O)NCC1COc2ccccc2C1` (configuration not stated), -2.08%.
To `CCn1ccnc1CN(C)C1CCCN(CCCc2ccccc2)C1` (configuration not stated) belongs 18.6%; to `CSc1ccc2cc(CN(C)CCCN(C)C)c(=O)[nH]c2c1`, -11.2%; to `COCCn1ccnc1C1CCCN(C(=O)CSc2nnc(C)o2)C1` (configuration not stated), -5.99%.
Consider `CC1c2cccn2CCN1C(=O)CCCc1nc(-c2ccco2)no1` (configuration not stated), for which the cytotoxicity at 70.5 h was -7.42%.
In the case of `CCc1nccn1CCC(=O)N1CC[C@@H](c2sccc2C)[C@H](O)C1` it was -12.3%; in that of `Cc1ccnc(N2CCN(C[C@]3(O)CCCN4CCCC[C@@H]43)CC2)c1`, 1.52%; in that of `CC(C)=CCCC(C)CN1CCC(n2cc(C(C)(C)O)nn2)CC1` (configuration not stated), -8.45%.
`Cc1ccc(-c2ccnc(NC(C)c3n[nH]c(=O)[nH]3)n2)c(C)n1` (configuration not stated): the cytotoxicity at 70.5 h was -12.8%.
To `O=c1n(CC2COCCO2)nc(CC2CCNCC2)n1-c1ccccc1` (configuration not stated) belongs -3.66%; to `Cc1cnc(C(=O)NCC2CCOc3ccccc3C2)cn1` (configuration not stated), 14.4%.
In the case of `Cn1ncc(N2CCOC(CCNC(=O)NC(C)(C)C)C2)cc1=O` (configuration not stated), the cytotoxicity at 70.5 h was 19.2%.
In the case of `COc1cccc(OCCCc2cncc(C(N)=O)c2)c1` it was -13.7%; in that of `COCCCN1CC2(CCN(Cc3ncc[nH]3)CC2)CC1=O`, -4.09%; in that of `COc1ccc2c(c1)OCC(Cc1ccnc(N)n1)C2` (configuration not stated), 8.07%.
To `O[C@H]1[C@H](n2cc(-c3ccccn3)nn2)c2ccccc2C12CCNCC2` belongs -3.68%.
Consider `COCCCN1C(=O)CC[C@H]2CN(c3cc(C(N)=O)ccn3)CC[C@H]21`, for which the cytotoxicity at 70.5 h is -7.97%.
To `CC(=O)c1cccc(CN2CCCC23CCN(c2ccccn2)CC3)c1` belongs -4.38%; to `OC(c1ccccn1)C1CCN(Cc2cc3n(n2)CCCNC3)CC1` (configuration not stated), -21%; to `Cc1nccn1CCC1CCCCN1Cc1cnc(N(C)C)nc1` (configuration not stated), -3.91%.
To `O=C(N1CC(c2cccnc2)C1)C1(c2ccc(F)cc2)CCOCC1` belongs 3.01%; to `C[C@@H]1CN(S(=O)(=O)c2ccc(F)cc2Cl)C[C@]1(C)O`, -0.172%; to `COc1ccc(OC)c2c(C)cc(N(C)CCCO)nc12`, 4.59%.
To `CC(C)(C)c1oc(C(N)=O)cc1CN1CCCCC(N)C1` (configuration not stated) belongs -7.89%; to `COc1ccc2c(c1)OCC(CNC(=O)c1cc(C(C)C)on1)C2` (configuration not stated), -20.5%; to `CCN(CC)C(=O)[C@@H]1C[C@@H](NC(=O)c2cccn2C2CC2)CN1C`, -7.5%.
Turning to `COc1cccc([C@@H](C)n2ccnc2-c2cc3n(n2)CCNC3)c1`, the cytotoxicity at 70.5 h is -10.2%.
To `CC(C)c1nnc2n1CCN(Cc1ccc3c(c1)OCO3)CC2` belongs -11.5%.
To `COc1cccc(N2CCN(Cc3cccc(CCN)c3)CC2=O)c1` belongs -6.65%; to `COCCn1c(=O)n(Cc2ccc(Cl)s2)c2cc(C(=O)O)ccc21`, -10.7%.
In the case of `c1cnn(CCC2CCCCN2Cc2cnc(C3CCCCC3)nc2)c1` (configuration not stated) it was -8.97%; in that of `O=C1N(CCCc2ccccc2)CCCC1(O)CNCC1CCCCC1` (configuration not stated), 6.76%; in that of `COc1cc(O)ccc1CN1CCN(C2CCc3ccccc3C2)CC1` (configuration not stated), -3.26%.
As for `CC(C)(N)c1cn(C2CCN(C(=O)CCC3CCCCC3)CC2)nn1`, the cytotoxicity at 70.5 h is -5.04%.
To `CC(=O)N1C[C@H](NC(=O)c2csc(C(C)C)c2)[C@@H](C(C)C)C1` belongs 14.4%; to `C=Cc1cccc(CN(Cc2cnn(C)c2)C2CC2)c1`, -9.54%.
To `CN1CCC(NCC2(O)CCCN(Cc3ccccc3F)C2=O)CC1` (configuration not stated) belongs -4.92%.
`CCN1CC(C(=O)N2CCc3cc(C(N)=O)n(C)c3C2)CC1=O` (configuration not stated): the cytotoxicity at 70.5 h was -2.91%.
To `Nc1cc(C(=O)N2CCC(Oc3cccc(C(F)(F)F)c3)CC2)ccn1` belongs -3.83%.
To `CCO[C@H]1CN(C)C[C@@H]1NC(=O)c1cc(C)nc2ccc(C)cc12` belongs -6.33%.
Take `CCN(CC)S(=O)(=O)N1CCCC(c2nccn2Cc2cccnc2)C1` (configuration not stated): the cytotoxicity at 70.5 h is -5.79%.
To `COc1cccc2c1OCC(NCc1cnn(-c3ccccc3F)c1)C2` (configuration not stated) belongs -0.785%.
To `Cc1cc2ccccc2n1CCC(=O)N1CCCCC1CCO` (configuration not stated) belongs -6.95%; to `Cc1nc2c(c(NC3CC3)n1)CCN(C(=O)CCc1cccnc1)CC2`, 12.4%.
Turning to `CNc1nc(C(=O)N2C[C@H]3CC[C@@H]2CN(C2CCOCC2)C3)cs1`, the cytotoxicity at 70.5 h is -10.2%.
Take `CCc1nc(C)c(C2CC(=O)Nc3c2c(C(C)(C)C)nn3C)[nH]1` (configuration not stated): the cytotoxicity at 70.5 h was 0.46%.
As for `CC(C)=CCN1C(=O)[C@H]2CC[C@@H]1CN(c1ncccn1)C2`, the cytotoxicity at 70.5 h is -21%.
To `CC(=O)c1cn(CC(=O)N2CCC(O)(CO)CC2)c2ccccc12` belongs -0.902%; to `O=C(O)C1(n2ccc(-c3ccco3)n2)CCN(Cc2ccsc2)CC1`, -1.95%.
To `Cn1ncc2c(N3CCN4CCCCC4C3)nc(C3CCCC3)nc21` (configuration not stated) belongs -0.0598%; to `Cc1nc(C(=O)N2CCN(C(=O)C3CCC3)[C@@H]3CS(=O)(=O)C[C@@H]32)cs1`, 2.83%; to `C=C(C)COc1ccccc1C(=O)N1CCC(C(=O)NCC)C1` (configuration not stated), -0.0263%.
In the case of `OC(c1ccccn1)C1CCN(Cc2cc3n(n2)CCNC3)CC1` (configuration not stated) it was 17.1%; in that of `CCC(CO)N(Cc1cccnc1)C(=O)c1ccc(C)[nH]c1=O` (configuration not stated), -7.73%.
Consider `Cc1cc(C(F)(F)F)nc(CNc2nc(C)nc3c2cnn3C)n1`, for which the cytotoxicity at 70.5 h was -7.38%.
Regarding `Cc1nc2cc(C(=O)N3C[C@@H](C(=O)O)[C@H](C4CC4)C3)ccc2[nH]1`, the cytotoxicity at 70.5 h was -3.58%.
To `Cc1nc(C)c(C)c(NCc2cnn3cccnc23)n1` belongs 3.17%; to `O=C(c1cccnc1)C1CCCN(c2nnc(C3CC3)o2)C1` (configuration not stated), -1.21%; to `CCCN1CCC(Cc2noc(-c3[nH]cnc3C)n2)CC1`, 6.08%.
To `Cc1nn(C)c2nc(N(C)CCN(C)C3CCCC3)sc12` belongs 5.16%; to `O=C(c1ccccc1)N1CCCC(Nc2ccc(F)cc2)C1` (configuration not stated), -1.68%.
In the case of `COc1cccc([C@@H]2CCN(Cc3[nH]nc(C)c3Cl)C[C@H]2O)c1` it was -22.1%.
On to `Cc1ccc(-c2cc(-c3nc(CN4CCN(C)CC4)no3)[nH]n2)s1`, for which the cytotoxicity at 70.5 h was -10.5%.
Consider `C[C@@H]1CN(C(=O)CSc2nncn2C)C[C@@]1(O)C1CC1`, for which the cytotoxicity at 70.5 h was -4.21%.
In the case of `Cc1cc(C(=O)N2CC[C@@]3(O)CCN(S(C)(=O)=O)C[C@H]3C2)c(C)n1C` it was 18.6%.
In the case of `CC(C)c1nccn1Cc1cc(C(=O)NCC(C)n2ccnc2)n[nH]1` (configuration not stated) it was -6.98%.
To `Cc1ccc(C(C(=O)NCCN2CCC(CO)CC2)N(C)C)cc1` (configuration not stated) belongs 27.1%; to `CCn1cc(CN(C)c2nc(C)c3ccc(S(C)(=O)=O)cc3n2)cn1`, -5.64%.
For the molecule `COCCN(Cc1ccncc1)C(=O)CCSCc1ccc(F)cc1`, the cytotoxicity at 70.5 h was determined as 20%.
To `CC(C(=O)N(C)C)N1CCc2onc(-c3cccc(F)c3)c2C1` (configuration not stated) belongs -5.12%.
In the case of `C=C(C)COc1cccc(C(=O)N(C)C(C)c2c(C)n[nH]c2C)c1` (configuration not stated) it was -4.42%.
As to `COc1cnc(N2CCN(C)CC2)nc1-c1ccnn1C`, the cytotoxicity at 70.5 h was -6.6%.
To `CN(CCc1cnn(C)c1)C(=O)CN1C(=O)OC[C@@H]1c1ccccc1` belongs -5.22%; to `Cc1cc(C)nc(CCNc2nccc(CCC(F)(F)F)n2)n1`, 8.35%; to `Cc1cccc2[nH]c(C3CCCN(Cc4ccc(CO)o4)C3)nc12` (configuration not stated), 4.96%.
In the case of `CC(C)[C@@H]1CN(C(=O)C2(c3ccccc3)CCN(C)CC2)C[C@H]1N(C)C` it was 9.05%.
In the case of `CC(C)CN1CC(C(=O)NCCc2c[nH]cn2)CC1=O` (configuration not stated) it was -0.927%; in that of `CC(=O)NCC1CCCN(Cc2nc(Cc3ccccc3F)no2)C1` (configuration not stated), 0.817%; in that of `COc1cc2c(cc1-c1nc3c(cnn3C(C)C)[nH]1)OCO2`, -0.0981%.
Consider `CC(C)c1cc(NCc2csc(C(C)C)n2)nc(N)n1`, for which the cytotoxicity at 70.5 h worked out at 24.3%.
To `CC(C)(O)c1cn(C2CCN(C(=O)CCc3ccncc3)CC2)nn1` belongs -4.73%; to `Cc1[nH]c2ccccc2c1CCNc1ncnc2c1CCNCC2`, 0.111%; to `O=c1cnc2ccccc2n1CCCn1cccn1`, 24.6%.
Regarding `CCN1CC(C(=O)N2CC(Oc3ccccc3Cl)C2)CC1=O` (configuration not stated), the cytotoxicity at 70.5 h was -1.71%.
To `Cc1cnc(NCCCN2CCCCC2CO)nc1` (configuration not stated) belongs -1.85%.
In the case of `CCC(CO)N(Cc1ccsc1)CC1CC1` (configuration not stated) it was -4.03%; in that of `Cc1nc[nH]c1CNCc1cccnc1N(C)C1CCCCC1`, -6%.
To `NS(=O)(=O)c1ccc(F)c(C(=O)NCCSC2CCCCC2)c1` belongs -9.09%; to `O=C(c1cnc2c(c1)CCC2)N1CCCC(CO)(CC2CC2)C1` (configuration not stated), -9.59%.
In the case of `O=C(c1cnc(COc2ccccc2)nc1O)N1CCC(F)(F)CC1`, the cytotoxicity at 70.5 h was -5.82%.
In the case of `Cc1nc(N(C)C)ncc1C(=O)NCCCn1nccc1C1CC1` it was 6.49%; in that of `O=C(CN1CCCC1c1nc(-c2ccccn2)no1)N1CCOCC1` (configuration not stated), -7.89%; in that of `CCN(C)Cc1n[nH]c(=O)n1-c1ccc(C)c(C)c1`, -11.7%.
In the case of `O=C(CN1CCC2(CCCN(CCO)C2=O)C1)NCCc1ccccc1` (configuration not stated) it was 11.6%.
